# Experimental data: a melting point compilation (Tetko et al.)
row,melting point [°C],SMILES
1,84 to 85,COC(=O)c1c(OC)c(OC)c(OC)c(C(=O)OC)c1C(=O)OC
2,183 to 185,Nc1cnc2ccccc2c1N
3,151,Brc1cccc2cc(C=NNc3ccccc3)ccc12
4,116,CCCCCCCCC(C(=O)O)C(=O)O
5,3 to 5,CC1=CC(=O)CC1
6,214,Cc1c(C)c(C)c2c(c1C)C(=O)CC2C(=O)O (centres undefined)
7,62,CC(C)(C)Oc1ncc(Br)cn1
8,304 to 305,Oc1n[nH]c2nc3ccccc3nc12
9,89.5,COC[C@H]1CCCN1C(=S)SCC(=O)c1ccc(Br)cc1
10,132,CC(C)(C)OC(=O)N[C@@H](Cc1ccc(Cl)cc1Cl)C(=O)O
11,220 to 222,CC(=O)NC1C(OCc2ccccc2)OC2COC(c3ccccc3)OC2C1OC(C)C(=O)O (centres undefined)
12,133,CCOC(=O)Oc1c(-c2ccccc2)n(C(C)=O)c2cc([N+](=O)[O-])ccc12
13,49 to 53,CCOC(=O)[C@H]1CCC(=O)N1
14,194 to 197,N=C(N)NS(=O)(=O)c1cc(C(F)(F)F)cc(C(F)(F)F)c1
15,210,CC(=O)OC1CC2C3CC=C4CC(O)CCC4(C)C3CCC2(C)C1C(C)C1CCC(C)CN1 (centres undefined)
16,90,COC(=O)CNC(SC)=C(C#N)C#N
17,2,O=CC1CC=CCC1 (centres undefined)
18,150 to 154,Cc1nc(-c2ccc3c(c2)CCO3)sc1C(=O)Cl
19,49,Cc1cc(Br)ccc1N=C=O
20,72 to 78,O=C(NCC[C@H](O)C(=O)O)OCc1ccccc1
21,155,CCOC(=O)c1c(SC)nn(C(N)=O)c1N
22,154 to 156,Cc1noc(N)c1[N+](=O)[O-]
23,-9,CCOC(=O)CC(=O)C(C)C
24,166 to 168,O=C(O)CC(CC(=O)O)c1ccc(C(F)(F)F)cc1
25,97 to 98,Cc1[nH]nc(C(F)(F)C(F)(F)C(F)(F)F)c1[N+](=O)[O-]
26,98,Nc1ccnc(Br)c1
27,202,Cc1c(O)ncnc1Cl

row,melting point [°C],SMILES
1,50.2,CC12CCCC1C1CCC3CCCCC3(C)C1CC2 (centres undefined)
2,130 to 131,CC(C)(C)c1cc(C(=Nc2ccccc2)Nc2ccccc2)cc(C(C)(C)C)c1O
3,210 to 211,O=C(Nc1ccccc1CCCCc1ccccc1NC(=O)c1ccccc1)c1ccccc1
4,160,Cc1ccc(N2C(=O)C3ON=C(C(=O)c4cccs4)C3C2=O)cc1 (centres undefined)
5,287,O=C(O)c1c(C(=O)O)c(C(=O)O)c(C(=O)O)c(C(=O)O)c1C(=O)O
6,146,CCCc1nc(O)n(-c2ccccc2)n1
7,68 to 70,Cc1ccc(S(=O)(=O)OCC(C)OS(=O)(=O)c2ccc(C)cc2)cc1 (centres undefined)
8,158,O=C(Nc1ccccc1)N(C(=O)C1Cc2ccccc21)c1ccccc1 (centres undefined)
9,25,CN1CCN(CCCN2c3ccccc3Sc3ccc(C(F)(F)F)cc32)CC1
10,146,OC(C1=CC(=C(c2ccccn2)c2ccccn2)C=C1)(c1ccccn1)c1ccccn1
11,109,COc1ccc(C(=O)c2ccc(Cl)cc2)cc1OC
12,107 to 110,COc1ccc(C=CC#N)c(Cl)c1OC
13,-37,C=C(C)C(=O)OCC(C)C
14,78,COC(=O)CCc1ccc(OC)c(O)c1
15,60,CC(=NO)c1ccccc1
16,203 to 204,Cc1ccccc1N1C(=O)C2ON=C(C(=O)c3ccco3)C2C1=O (centres undefined)
17,98,c1cnc(N2CCN(Cc3ccc4c(c3)OCO4)CC2)nc1
18,27,O=S(=O)(Cl)c1ccccc1Cl
19,133,COc1ccc2c(c1)CCC(C(=O)O)C2C (centres undefined)
20,78 to 79,O=Cc1cn2ccccc2n1
21,105,CC(=O)C1(C)Cc2ccccc2C(=O)O1 (centres undefined)
22,287 to 290,CC(C)(N)P(=O)(O)O
23,174,Cc1ccc(NC(=O)c2cccc3ccccc23)cc1
24,148,CCOC(=O)C(CCc1ccccc1)NC1CCc2ccccc2N(CC(=O)O)C1=O (centres undefined)
25,-26.8,COc1ccccc1Cl
26,96 to 97,COc1cccc2cc(C(=O)C3CC(C)(c4c(C)cc(C)cc4C)C3)oc12 (centres undefined)
27,300,Nc1nc(=O)c2[nH]nnc2[nH]1

row,melting point [°C],SMILES
1,129,Cc1cc(=O)oc2cc(OCC(=O)Cl)ccc12
2,209 to 210,S=c1cn[nH]c(=S)[nH]1
3,186 to 188,Clc1ccc(C2C3CCc4ccccc4C3=NN2c2ccc(Cl)cc2)cc1 (centres undefined)
4,106,CC(CS)C(=O)N1CCCC1C(=O)O (centres undefined)
5,94 to 95,COC(=O)c1sc(C(C)(C)C)cc1N
6,153,CC(C)(C=O)C(c1ccccc1)C(C(=O)O)C(=O)O (centres undefined)
7,232 to 233,CSc1sc(C(N)=S)c2c1C(=O)CCC2
8,268,Nc1nn2c(C(F)(F)F)cc(=O)[nH]c2c1/N=N/c1ccc(O)cc1
9,146 to 148,O=Cc1c[nH]nc1-c1ccccc1
10,185 to 189,Cc1nc(N)ccc1[N+](=O)[O-]
11,99 to 103,CC12CCC(O)CC1CC1(OCCO1)C1C2CCC2(C)C1CCC21OCCO1 (centres undefined)
12,19,CCOC(=O)Cc1ccncc1
13,227,C=C1CC23CC1(O)CCC2C12C=CC(O)C(C)(C(=O)O1)C2C3C(=O)O (centres undefined)
14,158,Cc1ccccc1NC(=S)Nc1ccccc1C
15,181,CSc1cc2c(c3c1CCc1ccccc1-3)c(=O)n(-c1ccccc1)n2C
16,174,NC(=S)c1ccc(C2SCCS2)cc1
17,188,CC1=CCCC(C)(C)C1/C=C/C(C)=C/C=C/C(C)=C/C=C/C=C(C)/C=C/C=C(C)/C=C/C1=C(C)CCCC1(C)C (centres undefined)
18,162,C#CC1(OC(C)=O)CCC2C3CCC4=CC(=O)CCC4C3CCC21C (centres undefined)
19,267,O=C(Cc1cc(CC(=O)Nc2ccccc2)c([N+](=O)[O-])cc1[N+](=O)[O-])Nc1ccccc1
20,288,C=C1C(=O)C23C(OC)CC4C5(C)CCCC4(COC5)C2C(O)CC1C3O (centres undefined)
21,110 to 114,O=[N+]([O-])c1ccc(Cl)cc1Nc1ccccc1
22,213,Nc1ncnc2c1ncn2C1OC(COP(=O)(O)O)C(O)C1O (centres undefined)
23,221,COc1ccccc1C1Nn2c(nnc2-c2cccnc2)S1 (centres undefined)
24,158 to 162,CCn1nc(C)c(Br)c1C(=O)O
25,310,O=c1[nH]cc(Br)c(=O)[nH]1
26,288 to 290,O=C1NN(c2ccccc2)C(=O)C1=C1SC=C(c2ccccc2)S1
27,127 to 129,O=[N+]([O-])c1cccnc1Sc1ccc(Cl)cc1

row,melting point [°C],SMILES
1,166 to 167,COc1ccc2c(c1)CC1(CCC(c3ccc(C(C)(C)C)cc3)CC1)C2=O (centres undefined)
2,105 to 107,CC(=O)OC1CCC2(C)C(CC(=O)C3C2CC(OC(C)=O)C2(C)C(C(C)CCC(=O)O)CCC32)C1 (centres undefined)
3,68,c1cncc(-c2cccnc2)c1
4,49 to 51,S=C=Nc1cc(Br)ccc1Br
5,15,C#CCCCCCCCCCCCCCC
6,53 to 56,Cc1ccc(C#N)n1C
7,63,CCOC(=O)N1CCNC(c2ccccc2)C1 (centres undefined)
8,4,CCCCCC#CC(=O)O
9,262,O=C(O)c1cc(=O)cc(C(=O)O)o1
10,119 to 123,FC(F)(F)c1cc(Cl)c2cc(CBr)ccc2n1
11,132,O=C1C=CC2=CC(=O)C=CC2=C1
12,241 to 243,CSc1sc(C(=O)O)c(-c2ccc(Cl)cc2)c1C#N
13,173 to 175,CC(C)(C)OC(=O)N1CCN(Cc2cccc(C(=O)O)c2)CC1
14,175,Cc1cc(Cl)ccc1NC(=S)N(C)C
15,210,N#Cc1ccc(C=Cc2ccccc2C=O)c([N+](=O)[O-])c1
16,216,CC(=O)Oc1c(I)cc(I)cc1C(=O)Nc1ccc(Cl)cc1
17,94 to 96,COc1cc(Br)c(CC(=O)O)cc1OC
18,108 to 111,CC(=NO)c1ccc(Cl)c(Cl)c1
19,-26,CCCCC(=O)NC
20,310,O=C(O)c1ccc(O)c(C(=O)O)c1
21,120,CCCC=C1C(=O)C2(C)CCC1C2(C)C (centres undefined)
22,228,NC(Cn1ccc(=O)c(O)c1)C(=O)O (centres undefined)
23,-29,Fc1c(F)c(F)c(I)c(F)c1F
24,99 to 105,O=S(=O)(N(c1ccccc1)S(=O)(=O)C(F)(F)F)C(F)(F)F

row,SMILES,melting point [°C]
1,CN(C)CC(O)c1ccc(O)c(O)c1 (centres undefined),149
2,O=[N+]([O-])C=Cc1cccc([N+](=O)[O-])c1,126
3,CC(=O)OC1CC[C@H]2[C@@H]3CC[C@@H]4C(Br)C(=O)CC[C@]4(C)[C@H]3CC[C@]12C (some centres undefined),181
4,CCP(=O)(CC)CC,52 to 53
5,COc1ccccc1-c1ccc(C=C2C(=O)NC(=S)NC2=O)o1,235
6,COc1ccc(OC)c(C(=O)CBr)c1,83 to 88
7,O=C(O)C(F)(F)C(F)(F)C(F)(F)C(F)(F)C(F)(F)C(F)(F)C(F)(F)C(F)(F)C(F)(F)F,87.4 to 88.2
8,O=P1(NC2CCCCC2)Oc2ccccc2-c2ccccc2O1,160
9,CC=C1CC(C)C(O)(CO)C(=O)OCC2=CCN3CCC(OC1=O)C23 (centres undefined),212
10,CNC(=O)Oc1ccccc1OC(CCl)OC (centres undefined),80
11,Nc1c(Br)cc([N+](=O)[O-])cc1Br,207
12,C[C@]12CCC(=O)C[C@@H]1CC[C@@H]1[C@@H]2CC[C@]2(C)C(=O)CC[C@@]12O,225 to 227
13,Cc1ccncc1/C=N/N(C)C,50
14,CC1(C)C(=O)OOC1=O,44 to 45
15,COC(=O)C=C(C)OP(=O)(OC)OC,21
16,CCOP(=O)(Cc1ccc(N)cc1)OCC,93
17,C/C=C/C#N,-51.5
18,CC(O)C#N (centres undefined),-40
19,O=C1NC(=S)NC(=O)C1=Cc1ccc(Br)o1,215
